Measurements published in US20260306514A1, “ORAL PHARMACEUTICAL FORMULATIONS CONTAINING 4-((2-HYDROXY-3-METHOXYBENZYL)AMINO) BENZENESULFONAMIDE DERIVATIVES” (Cadrenal Therapeutics, Inc., priority 2022, published 2026).
Values after ≈ are worked out from the molar mass of the structure shown. Like-named read-outs stand apart in the source and are kept apart here. Blank lines part the entries; values can stand above or below the molecule they belong to.

Tests used:
Aqueous solubility = type: physicochemical; conditions: for solubility in water: in words
12-LOX = conditions: in words; cited from earlier work
[1] = Rat PK of Compound 1, IV and oral suspension (Table 1); set-up: species or system rats; conditions: in vivo; for bioavailability: po, rats
Description: (§1) The intravenous formulation uses cyclodextrin (CD) to increase solubility. However, a drug loading of <10% is not suitable for oral formulation. The inventors explored a new approach to oral formulation without guidance from the art including lipid solubility screening in various non-aqueous vehicles, self micro-emulsifying systems with oils, surfactants, and co-surfactants, amorphous solid dispersions via hot melt and spray drying, micronization, and in silico screen of supercritical fluid nanoparticle engineering. […] The pharmaceutical acceptable carrier can be a polymer.

[2] = Rat PK of Compound 1, IV and oral solution (Table 2); type: in vivo, rats
Description: as §1, with “However, a drug loading of <10% is not suitable for oral formulation.” left out

[3] = Solubility of Compound 1 in organic solvents relevant to spray drying (Table 3); type: physicochemical; conditions: for solubility: organic solvent or mixture, read-out: Solubility Concentration
Protocol: THF was the most suitable solvent, and could be combined with other solvents such as acetone, ethanol and water to enable dissolution of the drug, polymer and additives in the formulation. Furthermore, given the anticipated dose of the product, maximizing the drug loading in the amorphous dispersion was essential.
Solubility in organic solvents relevant to spray draying were conducted ([…]), showing that THF with EtOH in water was preferred (85/10/5).

[4] = Oral bioavailability of Compound 1 suspension in mice; conditions: mouse, in vivo, suspension in 0.5% methylcellulose
Description: While this vehicle is sufficient for short term efficacy studies, the inventors needed a more robust and clinically relevant formulation for the longer dosing regimens required for mouse efficacy models.

solubility in water (Aqueous solubility): poor solubility in water
Structure (SMILES): COc1cccc(CNc2ccc(S(=O)(=O)Nc3cccc(C(C)C)c3)cc2)c1O [Compound 3, 4-((2-hydroxy-3-methoxybenzyl)amino)-N-(3-isopropylphenyl)benzenesulfonamide]
12-LOX inhibitor selectivity (12-LOX): selective
12-LOX inhibitory potency (12-LOX): highly potent

AUC(0-inf) ([1]; IV, 3 mg/kg): 43600 ng·h/mL
AUC(0-t) ([1]; IV, 3 mg/kg): 43600 ng·h/mL
Cmax ([1]; IV, 3 mg/kg): 49600 ng/mL
Tmax ([1]; IV, 3 mg/kg): 0.083 h
half-life ([1]; IV, 3 mg/kg): 155 min
AUC(0-inf) ([1]; IV, 10 mg/kg): 100000 ng·h/mL
AUC(0-t) ([1]; IV, 10 mg/kg): 100000 ng·h/mL
Cmax ([1]; IV, 10 mg/kg): 91200 ng/mL
Tmax ([1]; IV, 10 mg/kg): 0.083 h
half-life ([1]; IV, 10 mg/kg): 179 min
AUC(0-inf) ([1]; IV, 30 mg/kg): 214000 ng·h/mL
AUC(0-t) ([1]; IV, 30 mg/kg): 213000 ng·h/mL
Cmax ([1]; IV, 30 mg/kg): 180000 ng/mL
Tmax ([1]; IV, 30 mg/kg): 0.083 h
half-life ([1]; IV, 30 mg/kg): 154 min
AUC(0-inf) ([1]; oral suspension, 3 mg/kg): 237 ng·h/mL
AUC(0-t) ([1]; oral suspension, 3 mg/kg): 203 ng·h/mL
Cmax ([1]; oral suspension, 3 mg/kg): 30 ng/mL
Tmax ([1]; oral suspension, 3 mg/kg): 4 h
half-life ([1]; oral suspension, 3 mg/kg): 109 min
AUC(0-inf) ([1]; oral suspension, 10 mg/kg): 478 ng·h/mL
AUC(0-t) ([1]; oral suspension, 10 mg/kg): 399 ng·h/mL
Cmax ([1]; oral suspension, 10 mg/kg): 71.3 ng/mL
Tmax ([1]; oral suspension, 10 mg/kg): 2.67 h
half-life ([1]; oral suspension, 10 mg/kg): 205 min
AUC(0-inf) ([1]; oral suspension, 30 mg/kg): 768 ng·h/mL
AUC(0-t) ([1]; oral suspension, 30 mg/kg): 737 ng·h/mL
Cmax ([1]; oral suspension, 30 mg/kg): 142 ng/mL
Tmax ([1]; oral suspension, 30 mg/kg): 2.67 h
half-life ([1]; oral suspension, 30 mg/kg): 148 min
bioavailability ([1]; suspension dosing, read-out: Bioavailability): < 0.5%
bioavailability ([1]; suspension in 0.5% methylcellulose, read-out: oral bioavailability): < 5%
C0 or Cmax ([2]; IV, 3 mg/Kg, C0 extrapolated to T = 0 h): 63725 ng/mL
C0 or Cmax ([2]; PO solution, 30 mg/Kg): 6610 ng/mL
AUC(0-t) ([2]; in vivo, IV, 3 mg/Kg): 50700 ng·h/mL
half-life ([2]; in vivo, IV, 3 mg/Kg): 155 min
clearance ([2]; in vivo, IV, 3 mg/Kg, read-out: Cl_obs (observed clearance)): 0.986 mL/min/kg
Vd ([2]; in vivo, IV, 3 mg/Kg, read-out: Vss_obs): 0.101 L/kg
AUC(0-t) ([2]; in vivo, PO solution, 30 mg/Kg): 15200 ng·h/mL
half-life ([2]; in vivo, PO solution, 30 mg/Kg): 161 min
bioavailability ([2]; in vivo, po, 30 mg/kg, PO solution, 30 mg/Kg, read-out: F (bioavailability, fraction absorbed)): 3%
Soluble ([3]; 50:45:5 Tetrahydrofuran:Acetone:Water): Yes
solubility ([3]; 50:45:5 tetrahydrofuran:acetone:water): 10000 µg/mL (≈ 22.6 mM)
Soluble ([3]; 50:50 Acetone:Methanol): No
Soluble ([3]; 50:50 Methylene Chloride:Methanol): No
solubility ([3]; 50:50 acetone:methanol): < 2500 µg/mL
solubility ([3]; 50:50 methylene chloride:methanol): < 2500 µg/mL
Soluble ([3]; 85:10:5 Tetrahydrofuran:Ethanol:Water): Yes
solubility ([3]; 85:10:5 tetrahydrofuran:ethanol:water): 10000 µg/mL (≈ 22.6 mM)
Soluble ([3]; 95:5 Tetrahydrofuran:Water): Yes
solubility ([3]; 95:5 tetrahydrofuran:water): 10000 µg/mL (≈ 22.6 mM)
solubility in water (Aqueous solubility): poor solubility in water
solubility enhancement (Aqueous solubility; phosphate buffer or simulated intestinal fluid): greatly enhanced
bioavailability [4]: < 5%
Structure (SMILES): COc1cccc(CNc2ccc(S(=O)(=O)Nc3nc4ccccc4s3)cc2)c1O [Compound 1, N-(benzo[d]thiazol-2-yl)-4-((2-hydroxy-3-methoxybenzyl)amino)benzenesulfonamide]
solubilization by solvents utilized in the prior art ([3]; majority of solvents, in words): did not solubilize Compound 1 to an adequate level
12-LOX inhibitory potency (12-LOX): highly potent

solubility in water (Aqueous solubility): poor solubility in water
Structure (SMILES): COc1cccc(CNc2ccc(S(=O)(=O)Nc3nc4ccccc4o3)cc2)c1O [Compound 2, N-(benzo[d]oxazol-2-yl)-4-((2-hydroxy-3-methoxybenzyl)amino)benzenesulfonamide]
12-LOX inhibitor selectivity (12-LOX): selective
12-LOX inhibitory potency (12-LOX): highly potent
